# Laboratory results taken from US5591741A, “Fungicidal spiroheterocyclic derivatives” (American Cyanamid Company, priority 1993, dated 1997).
# Legend:
# Conditions in all cases: Table VIa; host plants sprayed; solution of 400 ppm and dilutions
# Botrytis cinerea = assay: In vivo fungicidal activity, Pepper Botrytis (PB); further: ranges in brackets are in %
# Alternaria solani = assay: In vivo fungicidal activity, Tomato Early Blight (TEB); further: ranges in brackets are in %
# Septoria nodorum = assay: In vivo fungicidal activity, Wheat Blotch (WSN)
# Protocol: Test compounds are dissolved in acetone and diluted with deionized water containing about 0.05% TWEEN 20®, a polyoxyethylene sorbitan monolaurate surfactant manufactured by Atlas Chemical Industries, to give a concentration of 400 ppm. Subsequent dilutions are made with an 0.05% aqueous solution of TWEEN 20®.
# Host plants are sprayed with test solution, dried and inoculated with fungi. When disease symptom development is optimal, the plants are rated for disease control according to the rating scale shown below. Each test contains inoculated treated plants, inoculated untreated plants and a reference standard. When more than one test is run, the data are averaged.
# Pyricularia oryzae = assay type: in vivo
# Cercospora beticola = assay: In vivo fungicidal activity, Sugar Beet Cercospora (SBC); further: ranges in brackets are in %
# Plasmopara viticola = assay: In vivo fungicidal activity, Grape Downy Mildew (GDM); further: ranges in brackets are in %
# Venturis inaequalis = assay: In vivo fungicidal activity, Apple Scab (AS)
# [1] = system: Erysiphe graminis f. sp. tritici; assay: In vivo fungicidal activity, Wheat Powdery Mildew (WPM)
structure (smiles),measurement,setting,value
CCCCC(CC)NCCC1COC2(CCC(C(C)(C)C)CC2)C1 (centres unmarked) [Compound 197],disease control rating PB,Botrytis cinerea,8 (96-99)
same,disease control rating TEB,Alternaria solani,0 (0)
same,disease control rating WSN,Septoria nodorum,7 (90-95)
same,disease control rating RB,Pyricularia oryzae,0 (0)
same,disease control rating SBC,Cercospora beticola,7 (90-95)
same,disease control rating GDM,Plasmopara viticola,7 (90-95)
same,disease control rating AS (Apple Scab),Venturis inaequalis,5 (60-74)
same,disease control rating WPM,[1],8 (96-99)
